The test system of data set [1] is MDA-MB-231. In words: Cytotoxicity against human MDA-MB-231 cells assessed as decrease in cell viability at 200 uM after 24 hrs by MTT assay. It counts as functional, cell-based. (In general: Formazan colour is commonly taken as a measure of viable cells.)
For data set [2], the system named is HUVEC. Briefly: Cytotoxicity against HUVEC assessed as inhibition of cell proliferation up to 12.5 uM after 24 hrs by MTT assay. It counts as cell-based. Particulars: human.
The subject of data set [3] is HUVEC. Briefly: Inhibition of tube formation in HUVEC at 6.25 uM measured after 24 hrs by Mayers hematoxylin staining based light microscopic analysis relative to control. It counts as functional. Particulars: Homo sapiens.
Data set [4] deals with HUVEC. In words: Antimigratory activity against HUVEC at 6.25 uM measured after 24 hrs by Mayers hematoxylin and eosin-Y staining based microscopic analysis relative to control. In kind it is functional, Homo sapiens.
The subject of data set [5] is MDA-MB-231. In words: Decrease in VEGF expression in human MDA-MB-231 cells after 24 hrs by western blotting method. In kind it is functional, cell-based.
Data set [6] deals with RAC-alpha serine/threonine-protein kinase (Homo sapiens) (UniProt P31749). In words: Decrease in phosphorylated Akt level in human MDA-MB-231 cells after 24 hrs by western blotting method. In kind it is cell-based. A general note: A western blot detects proteins with antibodies after separation by electrophoresis.
Chain of RAC-alpha serine/threonine-protein kinase (Homo sapiens) (P31749 whole entry): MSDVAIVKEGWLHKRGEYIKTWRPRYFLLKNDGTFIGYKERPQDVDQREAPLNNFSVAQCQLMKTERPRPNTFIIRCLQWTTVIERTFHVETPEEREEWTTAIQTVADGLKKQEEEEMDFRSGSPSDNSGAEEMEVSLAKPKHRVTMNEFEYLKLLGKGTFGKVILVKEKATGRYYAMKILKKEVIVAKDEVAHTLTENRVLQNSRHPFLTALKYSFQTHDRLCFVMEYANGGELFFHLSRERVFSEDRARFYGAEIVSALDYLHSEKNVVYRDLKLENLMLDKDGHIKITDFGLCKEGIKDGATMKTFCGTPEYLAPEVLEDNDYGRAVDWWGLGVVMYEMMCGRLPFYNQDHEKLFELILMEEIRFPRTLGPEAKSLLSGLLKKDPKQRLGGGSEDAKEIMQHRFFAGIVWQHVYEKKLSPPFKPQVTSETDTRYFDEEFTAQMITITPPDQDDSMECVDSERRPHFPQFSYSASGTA
Data set [7] relates to MDA-MB-231. In words: Cytotoxicity against human MDA-MB-231 cells assessed as decrease in cell viability at 6.25 to 25 uM after 24 hrs by MTT assay. In kind it is functional, cell-based.
Data set [8] deals with Mitogen-activated protein kinase; ERK1/ERK2 (Homo sapiens) (UniProt P27361+P28482). In words: Decrease in phosphorylated ERK1/2 level in human MDA-MB-231 cells after 24 hrs by western blotting method. In kind it is cell-based.
Chain of Mitogen-activated protein kinase; ERK1/ERK2 (Homo sapiens) (P27361 whole entry, looked up): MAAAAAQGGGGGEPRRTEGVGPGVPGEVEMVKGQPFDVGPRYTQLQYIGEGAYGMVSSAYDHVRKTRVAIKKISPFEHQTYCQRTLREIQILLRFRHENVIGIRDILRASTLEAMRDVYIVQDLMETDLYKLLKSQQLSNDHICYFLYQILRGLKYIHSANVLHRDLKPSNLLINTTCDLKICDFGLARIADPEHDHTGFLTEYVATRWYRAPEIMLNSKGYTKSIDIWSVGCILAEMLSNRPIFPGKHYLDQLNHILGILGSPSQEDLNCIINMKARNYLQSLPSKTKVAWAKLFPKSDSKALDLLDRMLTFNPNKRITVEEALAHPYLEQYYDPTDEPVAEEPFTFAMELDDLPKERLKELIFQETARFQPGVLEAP
Chain of Mitogen-activated protein kinase; ERK1/ERK2 (Homo sapiens) (P28482 whole entry, looked up): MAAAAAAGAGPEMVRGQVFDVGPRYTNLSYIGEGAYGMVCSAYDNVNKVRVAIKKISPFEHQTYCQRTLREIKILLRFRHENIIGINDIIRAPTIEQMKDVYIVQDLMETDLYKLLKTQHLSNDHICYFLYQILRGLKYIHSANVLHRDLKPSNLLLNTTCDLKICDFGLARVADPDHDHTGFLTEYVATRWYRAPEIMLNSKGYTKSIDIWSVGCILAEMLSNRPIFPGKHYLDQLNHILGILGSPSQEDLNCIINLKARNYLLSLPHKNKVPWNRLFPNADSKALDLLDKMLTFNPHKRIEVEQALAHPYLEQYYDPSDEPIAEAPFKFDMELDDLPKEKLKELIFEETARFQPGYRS
Data set [9] has as its system HUVEC. In words: Cytotoxicity against HUVEC assessed as inhibition of cell proliferation after 24 hrs by MTT assay. It counts as cell-based. Particulars: human.

The structures appear in SMILES notation. The source made the active and inactive calls. The calls are words filed in the database; no cut-off is given here.

Consider one molecule from ChEMBL document CHEMBL3813695, “Assessment of the anti-metastatic properties of sanguiin H-6 in HUVECs and MDA-MB-231 human breast cancer cells” (Bioorg Med Chem Lett, 2016).

As a reminder, the inhibition is the share of the control response that was lost under treatment. Take `O=C(O[C@@H]1O[C@@H]2COC(=O)c3cc(O)c(O)c(O)c3-c3c(cc(O)c(O)c3O)C(=O)O[C@H]2[C@@H]2OC(=O)c3cc(O)c(O)c(O)c3-c3c(cc(O)c(O)c3O)C(=O)O[C@@H]12)c1cc(O)c(O)c(Oc2c(O)c(O)c(O)c3c2C(=O)O[C@H]2[C@@H]4OC(=O)c5cc(O)c(O)c(O)c5-c5c(cc(O)c(O)c5O)C(=O)O[C@H]4[C@@H](OC(=O)c4cc(O)c(O)c(O)c4)O[C@@H]2COC(=O)c2cc(O)c(O)c(O)c2-3)c1`: the inhibition result (with MDA-MB-231 [1]; in the data set on MDA-MB-231 [5]; in [6]; in data set [8]) was “Active” throughout. Further, the Activity result in the data set with HUVEC [2] was “Non-toxic”; in the data set with HUVEC [4], 37.6%. The molecule further came in with an inhibition at 6.25 µM in the data set on HUVEC [3] of 41.5%. In addition, the inhibition entry with MDA-MB-231 [7] was “inactive”. Further, the “inhibition (INH)” value in the data set on HUVEC [9] is given as “Dose-dependent effect”.
